Data published in patent publication US20150283139A1, “CANCER TREATMENT METHOD” (SmithKline Beecham (Cork) Limited, priority 2004, published 2015).

Columns and labels:
[1] = in vivo; cited from earlier work
[2] = test system: non small cell lung cancer (NSCLC) brain metastases; conditions: eight subjects with newly diagnosed, untreated NSCLC brain metastases; cited from earlier work
[3] = test system: NSCLC adenocarcinoma; conditions: first-line gefitinib, Asian, female, non-smokers; cited from earlier work
[4] = test system: brain metastases from erbB-2 overexpressing, metastatic breast cancer; test: Clinical study of orally administered lapatinib, PET scan of brain lesions; format: in vivo, human; conditions: one patient, 750 mg lapatinib twice daily, previously treated with trastuzumab
Excerpt: Safety and efficacy assessments (independent review) were to be carried out at 2 and 4-week intervals respectively. PET scans were to be run at baseline, 1 week and 8 weeks and MRI at baseline, 8 weeks, and 16 weeks.

Compound: Cn1nnc2c(C(N)=O)ncn2c1=O [Temozolomide]
- crossing of the blood-brain barrier [1]: readily crosses the blood-brain barrier

Compound: COc1cc2ncnc(Nc3ccc(F)c(Cl)c3)c2cc1OCCCN1CCOCC1 [gefitinib]
- subjects with prolonged CNS partial responses [2]: Seven out of eight
- partial response rate [3]: 69%
- systemic disease control rate [3]: 80%

Compound: CS(=O)(=O)CCNCc1ccc(-c2ccc3ncnc(Nc4ccc(OCc5cccc(F)c5)c(Cl)c4)c3c2)o1.Cc1ccc(S(=O)(=O)O)cc1 [lapatinib, N-{3-Chloro-4-[(3-fluorobenzyl)oxy]phenyl}-6-[5-({[2-(methanesulphonyl)ethyl]amino}methyl)-2-furyl]-4-quinazolinamine ditosylate monhydrate]
- initial week 1 PET scan results (brain lesions) [4]: promising activity with a dramatic change in one lesion while other brain lesions showed less change or no change at all
